From patent EP2340832A1, “Morphinan-6-one compounds for the treatment or prevention of neurodegenerative diseases” (Universität Innsbruck, priority 2009, dated 2011)
Like-named read-outs stand apart in the source and are kept apart here.

Columns and labels:
[1] = system: C57BL/6N female mice; experiment: T-maze continuous alternation; conditions: for spontaneous alternation rate: normal mice
[2] = system: frontal cortex synaptosomes; experiment: ACh release from synaptosomes (15 mM K+-evoked [3H]-ACh release, superfusion); format: cell-based, male Sprague Dawley rats
Procedure: Preparation of synaptosomes: synaptosomes were prepared from brain frontal cortex of male Sprague Dawley rats (4 months old). The frontal cortex was rapidly dissected on ice and homogenized in 40 volumes of 0.32 M sucrose buffered at pH 7.4 with 0.01 M sodium phosphate. The homogenate was centrifuged at 1,000 g for 5 min. The crude synaptosomal pellet was obtained by centrifugation of the supernatant at 15,000 g for 20 min and was resuspended in 5 ml basal medium (125 mM Nacl, 3 mM KCI, 1.2 mM MgS04, 1.2 mM CaCl2, 1.0 mM NaH2PO4, 22 mM NaHCO3 and 10 mM glucose) which had been gassed with 95% O2 - 5% CO2 at 37 °C, pH 7.2 - 7.4.
Superfusion protocol: The synaptosomal suspension was incubated with [^3H]-choline (0.03 µM, 17.5x10^6 Bq/g) for 15 min at 37 °C. Then, the suspension was diluted (1:8) and aliquots were applied on filters in a continuous superfusion system with parallel chambers maintained at 37 °C. The media used for superfusion were basal medium and 15 mM K^+-containing stimulation medium. Both media were supplemented with ACh (1 µM) to facilitate the effectiveness of an allosteric potentiating ligand at the nicotine receptor and with atropine (0.1 µM) to block M2 presynaptic receptors. Synaptosomes were superfused with basal medium for 30 min to reach a constant outflow of [^3H]-ACh. Under these experimental conditions, the radioactivity released consisted largely of newly synthesized [^3H]-ACh. The K^+-stimulated release of [^3H]-ACh was determined in 2 subsequently collected fractions: 6 min basal release (superfusion with basal medium) and 6 min K^+-evoked release (superfusion for 1.5 min with 15 mM K^+-containing medium followed by […] basal medium). The test compounds galantamine, 4 and 2 were present in the superfusion medium concomitantly with 15 mM K^+ (for 1.5 min). Basal release of [^3H]-ACh (continuous superfusion with basal medium) was determined by collection of a 6 min sample followed by four subsequent 2 min samples. Aliquots of samples were mixed with scintillation liquid and the radioactivity quantified with a scintillation counter. The radioactivity bound to the filters was also measured.
Statistical analysis: The amount of [^3H]-ACh released in each sample was calculated as fraction of total synaptosomal tritium at the start of the respective collection period (tritium in the sample / sum of tritium in the respective fractions and in the synaptosomes on the filter). K^+-evoked release was expressed as percentage of basal release rate. Each n=1 represents the mean of an experiment with one synaptosomal preparation in at least 3 superfusion chambers. Statistical significance of group variances was calculated by one way ANOVA followed by Bonferroni's test.

[3] = system: extracellular ACh concentration in the nucleus accumbens; conditions: for 0AUC120 min (% increase x min) Mean ± SEM: 0 to 120 min; for Increase in ACh release (Peak increase as % of basal output): nucleus accumbens
[4] = molecular target: σ receptors labelled by [^3H]DTG (σ1 + σ2); experiment: Sigma receptor binding assay, [3H]DTG; conditions: read-out: IC50 ± SEM [^3H]DTG (σ1 + σ2); guinea pig brain membranes; compounds 1-5 tested up to 10 µM
Procedure: Filters were washed three times with 5 ml of ice-cold 10 mM Tris-HCI buffer (pH 8). The bound radioactivity was measured by liquid scintillation counting (Beckman Coulter™ LS6500). […] The values are expressed as the mean ± S.E.M of 2 - 4 independent experiments, each performed in duplicate.

[5] = molecular target: T1, δ receptor (Rattus norvegicus, UniProt P33533); experiment: [35S]GTPγS functional assay, rat brain membranes, δ receptor; format: biochemical, Sprague-Dawley rat
T1 construct: Membrane fractions were prepared from Sprague-Dawley rat or guinea pig brains; from tissue; host or cells: Sprague-Dawley rat brain (without cerebella) membranes
T1 sequence (P33533 whole entry): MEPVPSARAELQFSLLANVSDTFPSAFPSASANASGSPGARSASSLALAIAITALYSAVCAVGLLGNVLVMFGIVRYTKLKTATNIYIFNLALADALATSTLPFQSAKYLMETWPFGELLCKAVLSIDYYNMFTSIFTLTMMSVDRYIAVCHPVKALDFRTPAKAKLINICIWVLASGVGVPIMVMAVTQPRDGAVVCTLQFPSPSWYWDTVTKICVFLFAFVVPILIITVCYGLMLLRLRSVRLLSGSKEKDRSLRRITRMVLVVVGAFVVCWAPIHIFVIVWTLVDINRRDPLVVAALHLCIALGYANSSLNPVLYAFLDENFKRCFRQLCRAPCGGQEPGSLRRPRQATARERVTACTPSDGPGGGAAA
Procedure: (§1) Membrane fractions were prepared from Sprague-Dawley rat or guinea pig brains as described above. To determine binding of [^35S]GTPyS, rat or guinea pig brain membranes (10 µg of protein) were incubated for 60 min at 30 °C in Tris-EGTA buffer (50 mM Tris-HCl buffer, 3 mM MgCl2, 1 mM EGTA, […], pH 7.4) containing 30 µM GDP, 0.05 nM [^35S]GTPyS and appropriate concentrations of the respective compounds according to the present invention in a final volume of 1 ml. The reaction was terminated by vacuum filtration through Whatman GF/B glass fibre filters. Filters were washed three times with ice-cold 50 mM Tris-HCI buffer (pH 7.4) and the bound radioactivity was measured by liquid scintillation counting (Beckman Coulter™ LS6500). Basal activity was determined by subtracting the non-specific binding (measured in the presence of 100 µM unlabelled GTPyS) from the total binding (measured in the absence of the compound).
(§2) Stimulation produced by the compound is given as percentage of the basal activity (given as 100%). Functional data, EC50 (nM; half maximal effective concentration) and maximal stimulation Emax (% stimulation over basal level; maximal effective concentration), were calculated by using nonlinear regression analysis and sigmoidal curve fitting GraphPad Prism (San Diego, CA, USA) program. The values are expressed as the mean ± S.E.M of at least 3 independent experiments, each performed in triplicate. Statistical analysis was carried out using SPSS software (SPSS Inc., Chicago, lL, USA) and the Student T-test was used to compare different assay conditions. A ρ value < 0.05 was considered statistically significant.

[6] = molecular target: T2, K receptor (Cavia porcellus, UniProt P41144); format: biochemical, guinea pig
T2 construct: Membrane fractions were prepared from Sprague-Dawley rat or guinea pig brains; from tissue; host or cells: guinea pig brain (without cerebella) membranes
T2 sequence (P41144 whole entry): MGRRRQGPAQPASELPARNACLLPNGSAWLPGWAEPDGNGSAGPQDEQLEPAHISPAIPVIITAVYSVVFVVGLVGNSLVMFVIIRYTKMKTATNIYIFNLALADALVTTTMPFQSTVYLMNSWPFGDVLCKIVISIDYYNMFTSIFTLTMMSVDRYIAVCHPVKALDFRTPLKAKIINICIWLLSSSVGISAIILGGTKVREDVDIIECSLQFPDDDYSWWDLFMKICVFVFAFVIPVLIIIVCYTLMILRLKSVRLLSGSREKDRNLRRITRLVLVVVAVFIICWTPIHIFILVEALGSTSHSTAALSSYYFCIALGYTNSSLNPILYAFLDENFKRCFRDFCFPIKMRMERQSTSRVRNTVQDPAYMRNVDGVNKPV

[7] = molecular target: µ opioid receptor (Rattus norvegicus, UniProt P33535); experiment: [35S]GTPγS functional assay, rat brain membranes, µ receptor; format: biochemical, Sprague-Dawley rat; parameters: Membrane fractions were prepared from Sprague-Dawley rat or guinea pig brains; from tissue; host or cells: Sprague-Dawley rat brain (without cerebella) membranes
Chain of µ opioid receptor (P33535 whole entry): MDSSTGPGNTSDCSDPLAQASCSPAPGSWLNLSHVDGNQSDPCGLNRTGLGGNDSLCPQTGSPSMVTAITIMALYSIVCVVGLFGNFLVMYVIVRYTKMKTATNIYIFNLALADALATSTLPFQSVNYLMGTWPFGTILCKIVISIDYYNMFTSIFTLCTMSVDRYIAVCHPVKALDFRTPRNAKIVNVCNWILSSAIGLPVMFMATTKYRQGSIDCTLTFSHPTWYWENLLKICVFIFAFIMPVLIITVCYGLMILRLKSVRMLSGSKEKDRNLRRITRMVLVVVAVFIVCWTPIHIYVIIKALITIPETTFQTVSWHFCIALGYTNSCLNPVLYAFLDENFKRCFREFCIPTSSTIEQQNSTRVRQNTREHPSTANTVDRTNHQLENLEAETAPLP
Procedure: as §1, §2

[8] = scopolamine 0.033 µmol, compound 0.01 and 0.1 µmol i.c.v.

O=CN1CC[C@]23CC(=O)CC[C@H]2[C@H]1Cc1c(O)ccc(O)c13 [Compound 1, 1,4-dihydroxy-N-formylmorphinan-6-one]
spontaneous alternation rate ([1]; 0.01 and 0.1 µmol i.c.v.): did not influence alternation
effect on scopolamine-increased running time [1, 8]: did not influence
effect on scopolamine-induced reduction in alternation [1, 8]: abolished the cholinergic impairment of alternation
concentration of maximal effect on stimulation-evoked ACh release ([2]; 15 mM K+): 50 µM
influence of the nAChR antagonist mecamylamine on the compound-induced release ([2]; at the maximally effective concentration (1: 50 µM)): did not influence
effect on stimulation-evoked ACh release ([2]; lower (0.1 and 1 µM) and higher concentrations (100 µM)): ineffective
0AUC120 min (% increase x min) Mean ± SEM ([3]; Dose 0.5 µmol i.c.v.): 210 ± 31 % increase x min
Increase in ACh release (Peak increase as % of basal output) ([3]; Dose 0.5 µmol i.c.v.): 65 ± 16 %
0AUC120 min (% increase x min) Mean ± SEM ([3]; Dose 1 µmol i.c.v.): 1017 ± 214 % increase x min
Increase in ACh release (Peak increase as % of basal output) ([3]; Dose 1 µmol i.c.v.): 224 ± 39 %
AUC (area under the curve) of ACh (% of the basal value) ([3]; dose of 1 µmol i.c.v.): 1117±214%
level of ACh, peak value (% of the basal value) ([3]; dose of 1 µmol i.c.v.): 324±39%
dose dependence of the increase in extracellular brain ACh ([3]; i.c.v., across tested doses): dose-dependent increase
IC50 [4]: > 10 µM

C=CCN1CC[C@]23CC(=O)CC[C@H]2[C@H]1Cc1cccc(OC)c13 [Compound 4, 4-methoxy-N-allylmorphinan-6-one]
spontaneous alternation rate ([1]; 0.05 µmol i.c.v.): decreased spontaneous alternation rate
spontaneous alternation rate ([1]; lower (0.001; 0.01 and 0.025 µmol) or higher doses (0.1 µmol) i.c.v.): did not exert a significant effect
effect on scopolamine-induced reduction in alternation ([1]; scopolamine 0.033 µmol, compound 0.01 µmol i.c.v., not shown): ineffective
effect on scopolamine-induced reduction in alternation ([1]; scopolamine 0.033 µmol, compound 0.05 µmol i.c.v.): ameliorated
[35S]GTPγS binding on co-incubation with naltrindole versus antagonist alone ([5]; 10 µM each): did not produce any significant increase
effect on [35S]GTPγS binding stimulated by SNC 80 ([5]; compound 10 µM, SNC 80 10 µM): did not cause any significant changes
effect on K+-evoked ACh release in frontal-cortex synaptosomes ([2]; 0.01 to 10 µM): did not influence ACh release
effect on ACh in the superfusate (in words) ([3]; 0.25 µmol i.c.v., n=4, not shown): ineffective
effect on ACh in the superfusate (in words) ([3]; 0.5 µmol i.c.v.): short, delayed increase
toxicity at higher doses ([3]; 1 µmol and above, i.c.v., anaesthetized rats): could not be tested because of toxicity
0AUC120 min (% increase x min) Mean ± SEM ([3]; Dose 0.25 µmol i.c.v.): inactive
Increase in ACh release (Peak increase as % of basal output) ([3]; Dose 0.25 µmol i.c.v.): inactive
0AUC120 min (% increase x min) Mean ± SEM ([3]; Dose 0.5 µmol i.c.v.): 85 ± 26 % increase x min
Increase in ACh release (Peak increase as % of basal output) ([3]; Dose 0.5 µmol i.c.v.): 43 ± 19 %
[35S]GTPγS binding in the presence of the compound alone [6]: no increase
[35S]GTPγS binding on co-incubation with Nor-BNI versus antagonist alone [6]: did not produce any significant increase
effect on [35S]GTPγS binding stimulated by U69,593 [6]: slight, but significant decrease
function at the µ opioid receptor [7]: antagonistic function
[35S]GTPγS binding on co-incubation with cyprodime versus antagonist alone ([7]; 10 µM each, rat brain membranes): did not produce any significant increase
effect on [35S]GTPγS binding stimulated by DAMGO ([7]; compound 10 µM, DAMGO 10 µM, rat brain membranes): significantly decreased
[35S]GTPγS binding in the presence of the compound alone ([7]; rat brain membranes, compared with DAMGO): no increase
IC50 [4]: > 10 µM
